According to the supplement of paper PMC8671470:
± gives the standard deviation of the averaged measurements.

What was measured:
HL-60 [1] = assay: cell viability (% survival relative to DMSO control); higher = less cytotoxic; settings: 72 h
Outline: (§1)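 For each screen, HL-60 cells in RPMI 1640 with 10% FBS carried either DMSO or 100 nM of one of three metabolic inhibitors while the full library was applied at five tenfold concentrations, 1–10,000 nM, in duplicate. Plates were 384-well and were kept 72 h at 37 °C, 5% CO2. Viability, measured by CellTiter-Glo, was normalised to wells with DMSO and with 10 μM proteasome inhibitor. Where area under the curve appears, it was fitted by four-parameter log-logistic models in drc and PharmacoGx.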

HL-60 [2] = assay: area under dose-response curve (viability, 1 nM-10 uM) (fraction (0-1)); higher = more sensitive; settings: 72 h
Outline: as §1

[3] = 0.001 µM, co-treatment: AZD3965 100 nM
[4] = 0.001 µM, co-treatment: DMSO vehicle
[5] = 0.001 µM, co-treatment: GSK2194069 100 nM
[6] = 0.001 µM, co-treatment: pictilisib 100 nM
[7] = 0.01 µM, co-treatment: AZD3965 100 nM
[8] = 0.01 µM, co-treatment: DMSO vehicle
[9] = 0.01 µM, co-treatment: GSK2194069 100 nM
[10] = 0.01 µM, co-treatment: pictilisib 100 nM
[11] = 0.1 µM, co-treatment: AZD3965 100 nM
[12] = 0.1 µM, co-treatment: DMSO vehicle
[13] = 0.1 µM, co-treatment: GSK2194069 100 nM
[14] = 0.1 µM, co-treatment: pictilisib 100 nM
[15] = 1 µM, co-treatment: AZD3965 100 nM
[16] = 1 µM, co-treatment: DMSO vehicle
[17] = 1 µM, co-treatment: GSK2194069 100 nM
[18] = 1 µM, co-treatment: pictilisib 100 nM
[19] = 10 µM, co-treatment: AZD3965 100 nM
[20] = 10 µM, co-treatment: DMSO vehicle
[21] = 10 µM, co-treatment: GSK2194069 100 nM
[22] = 10 µM, co-treatment: pictilisib 100 nM
[23] = co-treatment: GSK2194069 100 nM
[24] = co-treatment: pictilisib 100 nM

| SMILES | cell viability (HL-60 [1]; [3]) | cell viability (HL-60 [1]; [4]) | cell viability (HL-60 [1]; [5]) | cell viability (HL-60 [1]; [6]) | cell viability (HL-60 [1]; [7]) | cell viability (HL-60 [1]; [8]) | cell viability (HL-60 [1]; [9]) | cell viability (HL-60 [1]; [10]) | cell viability (HL-60 [1]; [11]) | cell viability (HL-60 [1]; [12]) | cell viability (HL-60 [1]; [13]) | cell viability (HL-60 [1]; [14]) | cell viability (HL-60 [1]; [15]) | cell viability (HL-60 [1]; [16]) | cell viability (HL-60 [1]; [17]) | cell viability (HL-60 [1]; [18]) | cell viability (HL-60 [1]; [19]) | cell viability (HL-60 [1]; [20]) | cell viability (HL-60 [1]; [21]) | cell viability (HL-60 [1]; [22]) | area under dose-response curve (HL-60 [2]; co-treatment: AZD3965 100 nM) | area under dose-response curve (HL-60 [2]; co-treatment: DMSO vehicle) | area under dose-response curve (HL-60 [2]; [23]) | area under dose-response curve (HL-60 [2]; [24]) |
| --- | --- | --- | --- | --- | --- | --- | --- | --- | --- | --- | --- | --- | --- | --- | --- | --- | --- | --- | --- | --- | --- | --- | --- | --- |
| Cl.NC1=CCCN1Cc1nc(O)nc(O)c1Cl [Tipiracil] | 98.3 ± 4.6% | 97.2 ± 11% | 98.7 ± 1.1% | 93 ± 6.2% | 102 ± 3.3% | 94.3 ± 3.1% | 97.9 ± 6.2% | 100 ± 9.1% | 99.7 ± 1.8% | 102 ± 7.2% | 97.8 ± 1.5% | 93.7 ± 2% | 101 ± 1.4% | 99.34 ± 0.1% | 98.6 ± 4.8% | 97 ± 1.6% | 99.5 ± 5.9% | 100.1 ± 0.34% | 88 ± 10% | 86.7 ± 19% | < 0.0301 | < 0.0301 | < 0.0301 | < 0.0301 |
| N=C(N)c1ccc(N=NNc2ccc(C(=N)N)cc2)cc1 [Diminazene] | 94.9 ± 10% | 101.5 ± 0.37% | 99.7 ± 7.5% | 83.5 ± 15% | 98.5 ± 3.5% | 100.7 ± 0.87% | 100 ± 4% | 98 ± 3.4% | 106 ± 4.5% | 99.712 ± 0.039% | 105 ± 5.9% | 107.8 ± 0.59% | 93.1 ± 5.5% | 101.22 ± 0.055% | 100.3 ± 0.82% | 97.2 ± 1.2% | 101 ± 8.5% | 100.7 ± 0.46% | 101.5 ± 0.3% | 104 ± 4.4% | < 0.0301 | < 0.0301 | < 0.0301 | < 0.0301 |
| NC(CCC(=O)NC(CSCc1ccc(Br)cc1)C(=O)NCC(=O)OC1CCCC1)C(=O)OC1CCCC1 (stereo unspecified) [S-para-Bromobenzylglutathione cyclopentyl diester] | 101 ± 4% | 102 ± 2.7% | 104.2 ± 1% | 97.1 ± 9.2% | 98.9 ± 1.1% | 91.6 ± 11% | 85.8 ± 36% | 87.5 ± 17% | 102 ± 3.9% | 106 ± 1.5% | 110 ± 5.5% | 113 ± 9.7% | 91.1 ± 10% | 97.4 ± 3% | 95 ± 9.2% | 76.7 ± 18% | 77.1 ± 6.2% | 94.4 ± 3.5% | 87.2 ± 5.7% | 55.5 ± 3.4% | – | < 0.0301 | < 0.0301 | 0.0772 |
| OC[C@H]1N[C@@H](c2c[nH]c3c(O)ncnc23)[C@H](O)[C@@H]1O [Forodesine] | 97.5 ± 7.8% | 101 ± 2.1% | 100 ± 3.5% | 79.7 ± 8.4% | 105 ± 1.2% | 105 ± 1.1% | 103 ± 2.1% | 93.3 ± 3.5% | 101 ± 4.2% | 105 ± 5.4% | 96.2 ± 1.4% | 99.5 ± 11% | 101 ± 3% | 99.2 ± 1.5% | 98.2 ± 2.8% | 95.3 ± 3.3% | 94 ± 6.8% | 100.1 ± 0.95% | 95.9 ± 5.8% | 103.8 ± 0.76% | < 0.0301 | < 0.0301 | < 0.0301 | < 0.0301 |
| COc1cc(C2Oc3cc(C4Oc5cc(O)cc(O)c5C(=O)C4O)ccc3OC2CO)ccc1O (stereo unspecified) [Silibinin] | 107 ± 10% | 100 ± 2.7% | 107 ± 3.5% | 103 ± 3.9% | 99.1 ± 2.1% | 100.8 ± 0.69% | 101 ± 0.25% | 103 ± 3.5% | 107 ± 14% | 104 ± 4.8% | 105 ± 9.5% | 107 ± 12% | 102 ± 2.4% | 102 ± 4.2% | 105 ± 2.2% | 106 ± 9.9% | 102 ± 1.8% | 97.72 ± 0.59% | 97.3 ± 5% | 95.8 ± 2.6% | < 0.0301 | < 0.0301 | < 0.0301 | < 0.0301 |
| O=c1oc2c(cc1O)oc(=O)c1cc(O)c(O)c(O)c12 [Galloflavin] | 81.9 ± 2.5% | 102 ± 1.5% | 92.6 ± 11% | 109 ± 8.3% | 97.2 ± 2.5% | 84.8 ± 23% | 84.7 ± 13% | 93.7 ± 1.9% | 110 ± 11% | 104 ± 1.4% | 104 ± 3.8% | 94.13 ± 0.21% | 112 ± 12% | 109 ± 4.7% | 105 ± 8% | 107 ± 11% | 99.6 ± 2.8% | 99.28 ± 0.39% | 96.52 ± 0.27% | 98.54 ± 0.6% | < 0.0301 | < 0.0301 | < 0.0301 | < 0.0301 |
| CN(C)C(=N)NC(=N)N [Metformin] | 94.9 ± 4% | 101.9 ± 0.7% | 98.7 ± 11% | 92 ± 24% | 99 ± 5.4% | 95.8 ± 5.8% | 98 ± 11% | 111 ± 21% | 103 ± 2.1% | 102.3 ± 0.63% | 109 ± 9.2% | 120 ± 10% | 94.9 ± 1.5% | 95.9 ± 1.7% | 94 ± 3.7% | 96.7 ± 6.3% | 100 ± 2.3% | 96.73 ± 0.68% | 106 ± 8.9% | 104 ± 14% | < 0.0301 | < 0.0301 | < 0.0301 | < 0.0301 |
| c1ccc2nc(-c3nnc4sc(-c5cnccn5)nn34)ccc2c1 | 98.9 ± 0.82% | 97.4 ± 1.7% | 102 ± 7.4% | 105 ± 5.6% | 98.75 ± 0.27% | 100 ± 1.4% | 101 ± 5% | 103 ± 4.5% | 100.9 ± 0.44% | 98.61 ± 0.72% | 100 ± 5.6% | 103 ± 8.9% | 98.9 ± 3.1% | 98 ± 1.4% | 93.01 ± 0.7% | 107 ± 5.1% | 98.4 ± 2% | 102 ± 2.2% | 95.9 ± 5.9% | 100.1 ± 0.31% | < 0.0301 | < 0.0301 | < 0.0301 | < 0.0301 |
